# ChEMBL document CHEMBL5375983, “Discovery of YSR734: A Covalent HDAC Inhibitor with Cellular Activity in Acute Myeloid Leukemia and Duchenne Muscular Dystrophy” (J Med Chem, 2023)
# Activity calls are given as the source filed them. The rule behind the calls is not given here.
# Key:
# [1] = biological target: T1, Histone deacetylase 2 (Homo sapiens, UniProt Q92769); experiment: Inhibition of HDAC2 (unknown origin) using 6-carboxyfluorescein peptide as substrate preincubated with compound for 2 hrs followed by substrate addition by electrophoretic mobility shift assay
# T1 sequence (Q92769 whole entry): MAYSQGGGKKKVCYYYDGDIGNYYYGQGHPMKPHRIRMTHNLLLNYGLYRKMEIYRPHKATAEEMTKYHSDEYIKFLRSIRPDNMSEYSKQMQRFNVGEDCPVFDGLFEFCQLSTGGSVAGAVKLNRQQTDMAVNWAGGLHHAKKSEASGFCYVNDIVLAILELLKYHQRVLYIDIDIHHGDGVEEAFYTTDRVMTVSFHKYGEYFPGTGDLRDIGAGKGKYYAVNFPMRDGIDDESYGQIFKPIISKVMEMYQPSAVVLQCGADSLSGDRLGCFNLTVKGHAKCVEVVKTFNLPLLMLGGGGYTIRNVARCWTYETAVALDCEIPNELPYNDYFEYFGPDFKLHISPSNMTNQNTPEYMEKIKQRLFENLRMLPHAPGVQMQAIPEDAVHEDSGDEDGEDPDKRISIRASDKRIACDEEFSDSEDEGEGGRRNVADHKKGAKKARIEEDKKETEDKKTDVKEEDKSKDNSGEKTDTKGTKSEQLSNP
# [2] = biological target: T1, Histone deacetylase 2; experiment: Inhibition of HDAC2 (unknown origin) using 6-carboxyfluorescein peptide as substrate preincubated with compound followed by substrate addition by electrophoretic mobility shift assay
# [3] = biological target: T2, Histone deacetylase 1 (Homo sapiens, UniProt Q13547); experiment: Inhibition of HDAC1 (unknown origin) using 6-carboxyfluorescein peptide as substrate preincubated with compound followed by substrate addition by electrophoretic mobility shift assay
# T2 sequence (Q13547 whole entry): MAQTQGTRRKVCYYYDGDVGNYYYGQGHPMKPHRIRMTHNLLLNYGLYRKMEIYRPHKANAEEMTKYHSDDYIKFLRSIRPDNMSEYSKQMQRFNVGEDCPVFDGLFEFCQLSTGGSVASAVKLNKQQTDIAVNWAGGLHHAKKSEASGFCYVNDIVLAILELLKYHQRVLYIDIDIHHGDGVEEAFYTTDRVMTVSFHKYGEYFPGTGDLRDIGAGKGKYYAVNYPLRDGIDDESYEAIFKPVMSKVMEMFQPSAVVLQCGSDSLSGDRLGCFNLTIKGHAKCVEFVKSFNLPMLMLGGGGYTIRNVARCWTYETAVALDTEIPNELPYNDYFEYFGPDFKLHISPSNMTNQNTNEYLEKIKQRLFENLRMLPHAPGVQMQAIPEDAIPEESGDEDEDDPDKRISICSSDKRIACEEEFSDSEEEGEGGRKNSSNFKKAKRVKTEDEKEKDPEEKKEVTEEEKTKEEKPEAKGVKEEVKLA
# [4] = Glutathione reactivity assessed as compound consumption at 500 nM measured after 1 to 3 hrs by LC-MS/MS analysis; assay type: ADME; conditions: glutathione solution, time 1-3 hrs, read-out: Activity
# [5] = biological target: T1, Histone deacetylase 2; experiment: Inhibition of HDAC2 (unknown origin) using 6-carboxyfluorescein peptide as substrate preincubated with compound for 6 hrs followed by substrate addition by electrophoretic mobility shift assay
# [6] = Stability in human whole blood assessed as half life at 100 uM measured upto 40 mins by LC-MS/MS analysis; assay type: ADME, tissue-based
# [7] = Cytotoxicity against human MRC9 cells assessed as inhibition of cell growth incubated for 72 hrs by celltiter-blue viability assay; assay type: toxicity, cell-based
# [8] = test system: RS4-11; experiment: Cytotoxicity against human RS4-11 cells assessed as inhibition of cell growth incubated for 72 hrs by celltiter-blue viability assay; assay type: functional, cell-based; conditions: RS4-11, 72 h
# [9] = test system: MV4-11; experiment: Cytotoxicity against human MV4-11 cells assessed as inhibition of cell growth incubated for 72 hrs by celltiter-blue viability assay; assay type: functional, cell-based; conditions: MV4-11, 72 h
# [10] = Selectivity index, ratio of IC50 for cytotoxicity against human MRC9 cells to IC50 for cytotoxicity against human MV4-11 cells
# [11] = biological target: Histone deacetylase 1/2/3 (Homo sapiens) (UniProt Q13547+O15379+Q92769); experiment: […] binding affinity to HDAC1/2/3 in human MV4-11 cells assessed as increase in Ac-histone-H3 level at […] incubated for 6 hrs followed by compound washout and measured after 16 hrs by Western blot analysis; assay type: cell-based; conditions: dose 2.5 µM
# [12] = Half life in CD-1 mouse at 10 mg/kg, ip measured upto 12 hrs by LC-MS/MS analysis; assay type: ADME, organism-based; conditions: in vivo
# [13] = biological target: T3, Histone deacetylase 3 (Homo sapiens, UniProt O15379); experiment: Inhibition of full length recombinant human HDAC3 expressed in Sf9 cells using 6-carboxyfluorescein peptide as substrate preincubated with compound followed by substrate addition and measured after 3 hrs by electrophoretic mobility shift assay; assay type: cell-based
# T3 sequence (O15379 whole entry): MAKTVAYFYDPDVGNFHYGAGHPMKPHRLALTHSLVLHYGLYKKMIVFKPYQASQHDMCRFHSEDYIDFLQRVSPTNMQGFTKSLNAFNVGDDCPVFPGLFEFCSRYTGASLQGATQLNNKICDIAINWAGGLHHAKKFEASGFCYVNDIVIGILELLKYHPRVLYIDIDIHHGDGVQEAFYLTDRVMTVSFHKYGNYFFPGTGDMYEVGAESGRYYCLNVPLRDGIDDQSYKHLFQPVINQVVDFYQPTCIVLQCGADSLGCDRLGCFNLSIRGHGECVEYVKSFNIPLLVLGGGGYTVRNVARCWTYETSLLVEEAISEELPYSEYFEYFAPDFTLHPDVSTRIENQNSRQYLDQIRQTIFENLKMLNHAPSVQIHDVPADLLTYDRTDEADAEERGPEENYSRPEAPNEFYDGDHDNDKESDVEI
# [14] = biological target: T3, Histone deacetylase 3; experiment: Inhibition of full length recombinant human HDAC3 expressed in Sf9 cells using 6-carboxyfluorescein peptide as substrate preincubated with compound for 2 hrs followed by substrate addition and measured after 3 hrs by electrophoretic mobility shift assay; assay type: cell-based
# [15] = Cmax in CD-1 mouse at 10 mg/kg, ip measured upto 12 hrs by LC-MS/MS analysis; assay type: ADME, organism-based; set-up: time < 12 hrs, dose 10 mg/kg, route ip; conditions: in vivo
# [16] = AUCinfinity in CD-1 mouse at 10 mg/kg, ip measured upto 12 hrs by LC-MS/MS analysis; assay type: ADME, organism-based; set-up: time < 12 hrs, dose 10 mg/kg, route ip; conditions: in vivo
# [17] = biological target: T4, Histone deacetylase 8 (Homo sapiens, UniProt Q9BY41); experiment: Inhibition of full length recombinant human HDAC8 expressed in Sf9 cells using 6-carboxyfluorescein peptide as substrate preincubated with compound followed by substrate addition and measured after 3 hrs by electrophoretic mobility shift assay
# T4 sequence (Q9BY41 whole entry): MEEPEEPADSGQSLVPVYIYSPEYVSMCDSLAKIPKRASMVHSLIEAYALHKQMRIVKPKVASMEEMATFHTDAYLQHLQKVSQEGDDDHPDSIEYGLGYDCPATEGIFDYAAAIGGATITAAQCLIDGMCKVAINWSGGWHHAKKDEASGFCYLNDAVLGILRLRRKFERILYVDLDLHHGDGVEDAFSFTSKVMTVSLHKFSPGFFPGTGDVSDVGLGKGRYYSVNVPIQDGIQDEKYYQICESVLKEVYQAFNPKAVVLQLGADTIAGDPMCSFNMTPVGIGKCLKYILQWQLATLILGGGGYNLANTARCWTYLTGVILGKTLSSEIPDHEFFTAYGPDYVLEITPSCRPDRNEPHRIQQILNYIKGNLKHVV
# [18] = Glutathione reactivity assessed as compound consumption at 500 nM incubated for 16 hrs by LC-MS/MS analysis; assay type: ADME; conditions: glutathione solution, read-out: Drug metabolism
# [19] = biological target: T3, Histone deacetylase 3; experiment: Inhibition of full length recombinant human HDAC3 expressed in Sf9 cells using 6-carboxyfluorescein peptide as substrate preincubated with compound for 6 hrs followed by substrate addition and measured after 3 hrs by electrophoretic mobility shift assay; assay type: cell-based
# [20] = biological target: T2, Histone deacetylase 1; experiment: Inhibition of HDAC1 (unknown origin) using 6-carboxyfluorescein peptide as substrate preincubated with compound for 6 hrs followed by substrate addition by electrophoretic mobility shift assay
# [21] = Tmax in CD-1 mouse at 10 mg/kg, ip measured upto 12 hrs by LC-MS/MS analysis; assay type: ADME, organism-based; conditions: in vivo
# [22] = biological target: T5, Histone deacetylase 11 (Homo sapiens, UniProt Q96DB2); experiment: Inhibition of full length recombinant human HDAC11 expressed in Sf9 cells using 6-carboxyfluorescein peptide as substrate preincubated with compound for 6 hrs followed by substrate addition and measured after 17 hrs by electrophoretic mobility shift assay
# T5 sequence (Q96DB2 whole entry): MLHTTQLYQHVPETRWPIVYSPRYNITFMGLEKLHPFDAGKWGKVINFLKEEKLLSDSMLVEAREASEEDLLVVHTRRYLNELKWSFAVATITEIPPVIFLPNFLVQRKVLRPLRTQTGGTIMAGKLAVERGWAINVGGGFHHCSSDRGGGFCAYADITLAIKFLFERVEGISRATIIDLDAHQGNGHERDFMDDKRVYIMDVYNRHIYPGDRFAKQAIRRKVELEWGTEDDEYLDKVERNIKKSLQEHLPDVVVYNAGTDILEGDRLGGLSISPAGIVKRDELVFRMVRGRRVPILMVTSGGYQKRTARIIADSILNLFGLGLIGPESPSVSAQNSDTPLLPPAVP
# [23] = test system: MV4-11; experiment: Induction of apoptosis in human MV4-11 cells assessed as healthy cells at 1 uM measured after 6 hrs by annexin V-FITC/PI staining based FACS assay (reference value: 63.50%); assay type: functional
# [24] = test system: MV4-11; experiment: Induction of apoptosis in human MV4-11 cells assessed as late apoptotic cells at 4 uM measured after 6 hrs by annexin V-FITC/PI staining based FACS assay (reference value: 16.21%); assay type: functional
# [25] = test system: MV4-11; experiment: Induction of apoptosis in human MV4-11 cells assessed as healthy cells at 4 uM measured after 6 hrs by annexin V-FITC/PI staining based FACS assay (reference value: 63.50%); assay type: functional
# [26] = MRT in CD-1 mouse at 10 mg/kg, ip measured upto 12 hrs by LC-MS/MS analysis; assay type: ADME, organism-based; conditions: in vivo
# [27] = test system: MV4-11; experiment: Induction of apoptosis in human MV4-11 cells assessed as late apoptotic cells at 1 uM measured after 6 hrs by annexin V-FITC/PI staining based FACS assay (reference value: 16.21%); assay type: functional
# [28] = biological target: T1, Histone deacetylase 2; experiment: Binding affinity to recombinant full length HDAC2 catalytic domain Cys274 (unknown origin) assessed as formation of single covalent adduct at 50 uM incubated for 2 hrs by trypsin-digest protein mapping analysis
SMILES,IC50 [1],IC50 [2],IC50 [3],IC50 [5],IC50 at 72 h [7],IC50 [8],IC50 [9],Ratio IC50 [10],other results
C=CC(=O)N1CCC[C@@H](n2nc(-c3ccc(Oc4ccccc4)cc3)c3c(N)ncnc32)C1 [IBRUTINIB],–,–,–,–,–,–,–,–,half-life at 100 µM [6]: 64 min
Nc1ccccc1NC(=O)c1ccc(CNC(=O)OC2CCN(S(=O)(=O)c3c(F)c(F)cc(F)c3F)CC2)cc1,–,–,–,–,–,–,–,–,Activity [11]: Active
Nc1ccccc1NC(=O)c1ccc(CNC(=O)OC2CCN(S(=O)(=O)CCl)CC2)cc1,517 nM,> 1000 nM,369 nM,200 nM,15900 nM,720 nM,1380 nM,12,–
C=CC(=O)N1CCC(OC(=O)NCc2ccc(C(=O)Nc3ccccc3N)cc2)CC1,861 nM,> 1000 nM,592 nM,379 nM,21600 nM,1530 nM,2320 nM,9,–
C#CC(=O)N1CCC(OC(=O)NCc2ccc(C(=O)Nc3ccccc3N)cc2)CC1,759 nM,> 1000 nM,665 nM,328 nM,–,–,–,–,degraded at 0.5 µM [4]: > 50%
Nc1ccccc1NC(=O)c1ccc(CNC(=O)OCc2cccnc2)cc1 [ENTINOSTAT],–,–,–,–,10200 nM,300 nM,710 nM,–,"IC50 [22]: > 1000 nM; Activity [23]: 53.43%; Activity [24]: 30.45%; half-life [12]: 191 min; Activity [25]: 40.57%; MRT [26]: 57.6 min; Cmax [15]: 6250 ng/mL; AUC(0-inf) [16]: 5260 ng·h/mL; half-life at 100 µM [6]: 45 min; degraded at 16 h, 0.5 µM [18]: < 10%; Tmax [21]: 15 min; Activity [27]: 23.15%"
C=C=CC(=O)N1CCC(OC(=O)NCc2ccc(C(=O)Nc3ccccc3N)cc2)CC1,823 nM,> 1000 nM,685 nM,393 nM,–,–,–,–,–

# Further lines, with some results ahead:
IC50 [1],IC50 [2],IC50 [3],IC50 [5],SMILES,IC50 at 72 h [7],IC50 [8],IC50 [9],Ratio IC50 [10],other results
> 1000 nM,> 1000 nM,> 1000 nM,720 nM,Nc1ccccc1NC(=O)c1ccc(CNC(=O)OC2CCN(C(=O)CCl)CC2)cc1,–,–,–,–,degraded at 0.5 µM [4]: > 50%
295 nM,808 nM,200 nM,180 nM,CN(C)C/C=C/C(=O)N1CCC(OC(=O)NCc2ccc(C(=O)Nc3ccccc3N)cc2)CC1,31200 nM,1240 nM,1800 nM,17,–
490 nM,> 1000 nM,903 nM,274 nM,Nc1ccccc1NC(=O)c1ccc(CNC(=O)OC2CCCCC2)cc1,10900 nM,620 nM,1070 nM,10,"half-life [12]: 311 min; IC50 [13]: 273 nM; IC50 [14]: 73 nM; Cmax [15]: 2700 ng/mL; AUC(0-inf) [16]: 1810 ng·h/mL; IC50 [17]: > 10000 nM; degraded at 16 h, 0.5 µM [18]: < 10%; IC50 [19]: 36 nM; IC50 [20]: 64 nM; Tmax [21]: 4.8 min"
919 nM,> 1000 nM,445 nM,380 nM,C=CS(=O)(=O)N1CCC(OC(=O)NCc2ccc(C(=O)Nc3ccccc3N)cc2)CC1,–,–,–,–,degraded at 0.5 µM [4]: > 50%; Activity [28]: Active
